13 molecules from ChEMBL document CHEMBL1201862, “PubChem BioAssay data set” (2004) can be followed below.

Test systems include A498; NCI-H226; NCI-H460; OVCAR-8; NCI-H23; HCT-15; EKVX; SK-OV-3; MDA-N; HCT-116; SK-MEL-28; K562; HL-60; MOLT-4; SK-MEL-2; SNB-19.
Common to all, as to test: DTP human tumour cell line panel, 48 h

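Each compound was tested at five concentrations against cells in 96-well plates for 48 hours. GI50 is the concentration that inhibits growth by half.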 The source made the active and inactive calls. No stated cut-off is given here; in the data, active = GI50 up to about 1.1 µM and inactive = higher. Bounds are passed on as bounds.

For `CN(C)CCCNC(=O)c1c(O)c2ccccc2n(C)c1=O`, the GI50 was > 100 µM (inactive) with A498; 67 µM (inactive) in the test on NCI-H226; 42 µM (inactive) in the test with NCI-H460; 49.4 µM (inactive) with OVCAR-8; > 100 µM (inactive) in the test with NCI-H23; 51.1 µM with HCT-15. Also, the GI50 in the test with EKVX is > 100 µM (inactive); in the test on SK-OV-3 it was > 100 µM (inactive); in the test with MDA-N, 64.1 µM (inactive); with HCT-116, 44.1 µM (inactive); in the test with SK-MEL-28 it was 74.6 µM (inactive); with K562, 79.3 µM (inactive). Also, the GI50 in the test on HL-60 was 36.5 µM (inactive); in the test on MOLT-4, 44.5 µM (inactive); in the test on SK-MEL-2, 64.1 µM (inactive).
`C[C@@H]1S[C@H](c2c(Cl)cccc2Cl)N2Cc3ccccc3N=C12`: the GI50 in the test with A498 was > 100 µM (inactive); in the test on NCI-H460, > 100 µM (inactive); in the test on SNB-19, > 100 µM (inactive); in the test on NCI-H23 it was > 100 µM (inactive); in the test with HCT-15, more than 100 µM; in the test on EKVX, 42.9 µM (inactive). Also, the GI50 with SK-OV-3 was > 100 µM (inactive); in the test on MDA-N it was > 100 µM (inactive); in the test with HCT-116 it was 11.5 µM (inactive); in the test on SK-MEL-28 it was > 100 µM (inactive); in the test with K562, > 100 µM (inactive); in the test on HL-60, 48.4 µM (inactive). For the same molecule, the GI50 in the test with MOLT-4 and in the test with SK-MEL-2 was > 100 µM (inactive) throughout.
For the molecule `O=C(/C=C/c1ccc(-c2ccccc2)cc1)NCc1ccc(C(=O)NCCc2c[nH]c3ccccc23)cc1`, the GI50 was 32.8 µM (inactive) in the test on A498; 24.4 µM (inactive) in the test on NCI-H226; 31.7 µM (inactive) with NCI-H460; 21.7 µM (inactive) with SNB-19; 13.6 µM (inactive) in the test on OVCAR-8; 22.1 µM (inactive) in the test with NCI-H23. Also, the GI50 in the test on HCT-15 is more than 100 µM; in the test with EKVX, 34.2 µM (inactive); in the test with SK-OV-3 it was 14.5 µM (inactive); in the test on MDA-N, 49.2 µM (inactive); with HCT-116, 46.9 µM (inactive); with SK-MEL-28 it was 39.7 µM (inactive). The GI50 was 21.5 µM (inactive) in the test with K562, 16.6 µM (inactive) in the test with MOLT-4 and 33.5 µM (inactive) in the test on SK-MEL-2.
Consider `Nc1nc(Cl)cc(NC2(CO)CCC2)n1`, for which the GI50 is > 100 µM (inactive) in the test with A498; > 100 µM (inactive) in the test on NCI-H226; > 100 µM (inactive) in the test on NCI-H460; > 100 µM (inactive) in the test with OVCAR-8; > 100 µM (inactive) in the test with NCI-H23; more than 100 µM in the test with HCT-15. Besides, the GI50 with EKVX, in the test with MDA-N, in the test with HCT-116, with SK-MEL-28, in the test with K562 and in the test with HL-60 was > 100 µM (inactive) each time. In addition, the GI50 in the test on MOLT-4 and in the test on SK-MEL-2 was > 100 µM (inactive) throughout.
As for `NC1c2c(Br)sc(N3CCCC3)c2C(=O)C1O` (stereo not given), the GI50 in the test with A498, in the test with NCI-H226, in the test with NCI-H460, in the test on SNB-19, with OVCAR-8 and with NCI-H23 was > 50 µM (inactive) throughout. For the same molecule, the GI50 in the test with HCT-15 is more than 50 µM; with EKVX, > 50 µM (inactive); with SK-OV-3, > 50 µM (inactive); in the test with MDA-N, > 50 µM (inactive); in the test on HCT-116, > 50 µM (inactive); in the test with K562 it was > 50 µM (inactive). Besides, the GI50 in the test on HL-60, in the test on MOLT-4 and with SK-MEL-2 was > 50 µM (inactive) in each case.
For `COC(=O)c1c2c(cc3c1CC1(C3)Cc3cc4c(c(C(=O)OC)c3C1)CCC4)CCC2`, the GI50 in the test with A498, with NCI-H226, in the test on OVCAR-8, with NCI-H23, in the test on EKVX and in the test with SK-OV-3 was > 100 µM (inactive) throughout. Moreover, the GI50 in the test with MDA-N was > 100 µM (inactive); in the test on HCT-116 it was > 100 µM (inactive); in the test on K562 it was > 100 µM (inactive); with HL-60, 22.1 µM (inactive); in the test on MOLT-4, > 100 µM (inactive); in the test on SK-MEL-2, > 100 µM (inactive).
As for `CC(=O)OC1CC[C@@]2(C)C(=CC[C@@H]3[C@@H]2CC[C@]2(C)C(OC(C)=O)[C@H](n4ccnc4)C[C@@H]32)C1` (stereo not given in full), the GI50 in the test with A498 is 90.4 µM (inactive); in the test with NCI-H226, 36.6 µM (inactive); with NCI-H460, 17.4 µM (inactive); in the test on SNB-19, 62.8 µM (inactive); in the test on OVCAR-8, 17.1 µM (inactive); in the test on NCI-H23, 37.5 µM (inactive). For the same molecule, the GI50 with HCT-15 is 15.5 µM; with EKVX, 37.7 µM (inactive); in the test with MDA-N it was 21 µM (inactive); in the test on HCT-116, 14.9 µM (inactive); with SK-MEL-28, 17.7 µM (inactive); in the test with K562, 24.6 µM (inactive). The GI50 in the test on HL-60 is 8.91 µM (inactive); in the test with MOLT-4, 12.9 µM (inactive); with SK-MEL-2, 16.8 µM (inactive).
Turning to `CCCSc1cc(Cl)c(C)cc1S(=O)(=O)n1ccnc1OCCCN(C)C`, the GI50 in the test with A498, in the test with NCI-H226, in the test with NCI-H460, in the test with SNB-19, in the test on OVCAR-8 and in the test on NCI-H23 was > 100 µM (inactive) each time. The GI50 in the test with HCT-15 was more than 100 µM; in the test with EKVX it was > 100 µM (inactive); with SK-OV-3, > 100 µM (inactive); in the test with MDA-N, > 100 µM (inactive); in the test on HCT-116 it was > 100 µM (inactive); in the test on SK-MEL-28, > 100 µM (inactive). Moreover, the GI50 with K562, with MOLT-4 and in the test with SK-MEL-2 was > 100 µM (inactive) throughout.
Consider `CC(=O)NNc1nc(C)c(C(/C=C/c2ccc([N+](=O)[O-])cc2)=N/NC(N)=O)s1`, for which the GI50 in the test with A498, in the test with NCI-H226, in the test with NCI-H460, in the test on SNB-19, with OVCAR-8 and with NCI-H23 was > 100 µM (inactive) throughout. For the same molecule, the GI50 with HCT-15 was more than 100 µM; in the test with EKVX, 44.8 µM (inactive); in the test with SK-OV-3, > 100 µM (inactive); in the test on MDA-N, > 100 µM (inactive); in the test on HCT-116, > 100 µM (inactive); in the test with SK-MEL-28 it was > 100 µM (inactive). Also, the GI50 in the test on K562, in the test on MOLT-4 and in the test on SK-MEL-2 was > 100 µM (inactive) throughout.
Take `Cc1ccc([S+]([O-])c2sccc2C=O)cc1` (stereo not given): the GI50 was > 100 µM (inactive) with A498; 21.9 µM (inactive) in the test with NCI-H460; > 100 µM (inactive) in the test on SNB-19; 23.1 µM (inactive) in the test with OVCAR-8; 30.8 µM (inactive) with NCI-H23; 27.7 µM in the test on HCT-15. The GI50 in the test with EKVX is 26.2 µM (inactive); in the test with SK-OV-3, > 100 µM (inactive); in the test with MDA-N, 27.6 µM (inactive); with HCT-116, 16.4 µM (inactive); with SK-MEL-28, 29.2 µM (inactive); with K562, 48.6 µM (inactive). Moreover, the values for the GI50 in the test with HL-60, in the test with MOLT-4 and with SK-MEL-2 were 21 µM (inactive), 21.3 µM (inactive) and 43.6 µM (inactive), respectively.
In the case of `CCOC(=O)CCC(NC(=O)C(N)c1ccc([N+](=O)[O-])cc1)C(=O)NC(CCC(=O)OCC)C(=O)OCC` (stereo not given), the GI50 in the test with A498, in the test with NCI-H226, with NCI-H460, in the test with SNB-19, in the test on OVCAR-8 and in the test on NCI-H23 was > 100 µM (inactive) each time. For the same molecule, the GI50 in the test with HCT-15 is more than 100 µM; in the test with EKVX, > 100 µM (inactive); in the test with MDA-N, > 100 µM (inactive); in the test on HCT-116, > 100 µM (inactive); in the test on SK-MEL-28, > 100 µM (inactive); in the test on K562, > 100 µM (inactive). Further, the GI50 with HL-60, in the test on MOLT-4 and in the test with SK-MEL-2 was > 100 µM (inactive) throughout.
For the molecule `O=C(/C=C/c1ccc(Cl)cc1)Oc1ccc(C=C2CCC/C(=C\c3ccc(OC(=O)/C=C/c4ccc(Cl)cc4)cc3)C2=O)cc1`, the GI50 in the test with A498, in the test on NCI-H226, in the test on NCI-H460, in the test with SNB-19, in the test with OVCAR-8 and with NCI-H23 was > 100 µM (inactive) throughout. Further, the GI50 with HCT-15 was more than 100 µM; in the test with EKVX, > 100 µM (inactive); in the test on SK-OV-3, > 100 µM (inactive); in the test with MDA-N, > 100 µM (inactive); in the test with HCT-116, > 100 µM (inactive); with SK-MEL-28, > 100 µM (inactive). Besides, the GI50 in the test on K562, in the test on MOLT-4 and with SK-MEL-2 was > 100 µM (inactive) each time.
For `CO/C(=C/C(=O)C(Cl)(Cl)Cl)CC/C(=C\C(=O)C(Cl)(Cl)Cl)OC`, the GI50 in the test with A498 is 35.3 µM (inactive); in the test on NCI-H460, 29.1 µM (inactive); in the test with SNB-19, 45.8 µM (inactive); in the test with OVCAR-8, 21.9 µM (inactive); with NCI-H23, 22.4 µM (inactive); in the test on HCT-15, 22.5 µM. The GI50 in the test with EKVX is 20.4 µM (inactive); with SK-OV-3 it was 30.4 µM (inactive); with MDA-N it was 22.8 µM (inactive); in the test with HCT-116 it was 18.8 µM (inactive); in the test on SK-MEL-28, 30.1 µM (inactive); in the test with K562 it was 25.8 µM (inactive). Further, the results for the GI50 in the test with HL-60, in the test on MOLT-4 and with SK-MEL-2 were 26.4 µM (inactive), 21.4 µM (inactive) and 32.4 µM (inactive), respectively.

By GI50 is commonly meant the concentration at which growth is held to half of that of the control.
